Experimental data from patent US11672758B2, “Endoxifen methods and compositions for inhibition of protein kinase C” (Jina Pharmaceuticals, Inc., priority 2006, dated 2023).
Several values for one entry are separate records, joined by “and”; a condition that tells them apart may be missing. Identical values can stand only once. Like-named read-outs stand apart in the source and are kept apart here.

Tests used:
[1] = cited from earlier work
male Balb/c mice = test: Toxicity testing, intravenous single and repeat dose in mice; assay type: in vivo
Experimental: Endoxifen was formulated according to Example 6 and was tested for toxicity in male Balb/c mice. A single test dose at 100 mg/kg or 50 mg/kg was intravenously administered to mice. […] The mice also survived in the control group with a vehicle control that lacked endoxifen. Repeat dose toxicity study was conducted with a dose of 25 mg/kg administered consecutively for 3 days with accumulated dose of 75 mg/kg. […] The results are reported in the table below as the number of mice surviving per total.

PKC = PKC kinase activity assay kit (Assay Designs); assay type: biochemical; conditions: for percentage PKC inhibition: PKC 10 ng/well
Experimental: A PKC kinase activity assay kit (Assay Designs, Ann Arbor, Mich.) was used to test endoxifen PKC inhibitory activity 0.025, 0.05, 0.1, or 0.2 mM endoxifen was used in a reaction mix containing PKC 10 ng/well.

[2] = Comparative pharmacokinetic study in rats; assay type: in vivo; conditions: oral 10 mg/kg endoxifen versus 10 mg/kg tamoxifen
patients = patients on raloxifene for osteoporosis; cited from earlier work
Parkinsonian monkeys = conditions: co-administered with levodopa to Parkinsonian monkeys; cited from earlier work

Molecule: 4-hydroxy tamoxifen [4-OH-tamoxifen, reference compound]
- concentration in the human plasma ([1]; human, in vivo): 1 ng/mL

Molecule: CC/C(=C(\c1ccc(O)cc1)c1ccc(OCCNC)cc1)c1ccccc1 [Endoxifen, 4-hydroxy N-desmethyl tamoxifen]
- Survival/Total (male Balb/c mice; repeat dose 25 mg/kg consecutively for 3 days, accumulated dose 75 mg/kg): 4/4
- loss of body weight (male Balb/c mice; single dose 50 mg/kg intravenous): no significant loss of body weight
- Survival/Total (male Balb/c mice; single dose 50 mg/kg intravenous, formulated according to Example 6, 50 mg/kg): all animals survived and 4/4
- Survival/Total (male Balb/c mice; single dose 100 mg/kg intravenous, formulated according to Example 6, 100 mg/kg): All the mice died and 0/2
- percentage PKC inhibition (PKC; 0.2 mM): 80%
- percentage PKC inhibition (PKC; […]): 12%
- potency as PKC inhibitor relative to tamoxifen (PKC; endoxifen versus tamoxifen): at least four fold more potent
- concentration in the human plasma ([1]; patients treated with tamoxifen): 12.4 ng/mL
- endoxifen plasma concentration compared to that after same dose of tamoxifen [2]: 10 fold

Molecule: O=C(c1ccc(OCCN2CCCCC2)cc1)c1c(-c2ccc(O)cc2)sc2cc(O)ccc12 [raloxifene]
- reduction in risk of mild cognitive impairment (patients): 33%

Molecule: CC/C(=C(\c1ccccc1)c1ccc(OCCN(C)C)cc1)c1ccccc1 [tamoxifen, reference compound]
- attenuation of levodopa-induced dyskinesias (Parkinsonian monkeys): 61%
